Test results taken from patent US9636380B2 (priority 2013, dated 2017).

What was measured:
GABAA receptors = assay: Whole-cell recording of light-evoked IPSCs (LHb inputs) in DA cells projecting to NAc lateral shell, midbrain slices; type: cell-based, mice; conditions: 50 μM bath perfusion; LHb input stimulation; n=3; p<0.0001
Description: (§1) Mice were deeply anaesthetized with pentobarbital (200 mg/kg ip; Ovation Pharmaceuticals, Deerfield, Ill.). Coronal midbrain slices (250 μm) were prepared after intracardial perfusion with ice-cold artificial cerebrospinal fluid (ACSF) containing elevated sucrose (in mM): 50 sucrose, 125 NaCl, 25 NaHCO3, 2.5 KCl, 1.25 NaH2PO4, 0.1 CaCl2, 4.9 MgCl2, and 2.5 glucose (oxygenated with 95% O2/5% CO2). After 90 min of recovery, slices were transferred to a recording chamber and perfused continuously at 2-4 ml/min with oxygenated ACSF (125 NaCl, 25 NaHCO3, 2.5 KCl, 1.25 NaH2PO4, 11 glucose, 1.3 MgCl2, and 2.5 CaCl2) at ˜30° C. […]
(§2) Labeled DA neurons were visualized with a 40× water-immersion objective on an upright fluorescent microscope (BX51WI, Olympus USA) equipped with infrared-differential interference contrast (IR-DIC) video microscopy and epifluorescence (Olympus USA) for detection of retrobeads. […] A dual lamp house adapter (Olympus USA) was used to switch between fluorescence lamp and LED light source. Excitatory postsynaptic currents (EPSCs) were recorded in whole-cell voltage clamp (Multiclamp 700B, Molecular Devices, CA, USA), filtered at 2 KHz, digitized at 10 KHz (ITC-18 interface, HEKA) and collected on-line using custom Igor Pro software (Wavemetrics, Lake Oswego, Oreg., USA). […]

AMPA receptor = assay: Whole-cell recording of light-evoked EPSCs (LDT inputs) in DA neurons projecting to NAc lateral shell, midbrain slices; type: cell-based, mice; conditions: 10 μM bath perfusion; stimulation of LDT fibers; −70 mV
Description: as §1, §2

Row | Compound | Effect on light-evoked IPSCs in DA cells projecting to NAc lateral shell (GABAA receptors) | Effect on light-evoked EPSCs in DA neurons projecting to NAc lateral shell (AMPA receptor)
1 | picrotoxin | blocked | 
2 | N#Cc1cc2[nH]c(=O)c(=O)[nH]c2cc1[N+](=O)[O-] [CNQX] |  | blocked
